# Legend:
# [1] = tested on: Receptor-type tyrosine-protein kinase FLT3 (Homo sapiens), P36888 [R834Q]; details: Compound concentration 1000.0 nM
# [2] = target: Phosphatidylinositol 4-phosphate 3-kinase C2 domain-containing subunit beta (Homo sapiens) (UniProt O00750); details: Compound concentration 1000.0 nM
# [3] = target: Ribosomal protein S6 kinase alpha-2 (Homo sapiens) (UniProt Q15349); details: Compound concentration 1000.0 nM
# [4] = target: Peripheral plasma membrane protein CASK (Homo sapiens) (UniProt O14936); details: Compound concentration 1000.0 nM
# [5] = target: MAP kinase-interacting serine/threonine-protein kinase 2 (Homo sapiens) (UniProt Q9HBH9); details: Compound concentration 1000.0 nM
# [6] = target: Serine/threonine-protein kinase ICK (Homo sapiens) (UniProt Q9UPZ9); details: Compound concentration 1000.0 nM
# [7] = target: Ribosomal protein S6 kinase alpha-5 (Homo sapiens) (UniProt O75582); details: Compound concentration 1000.0 nM
# [8] = target: Serine/threonine-protein kinase TAO1 (Homo sapiens) (UniProt Q7L7X3); details: Compound concentration 1000.0 nM
# [9] = target: Ephrin type-B receptor 6 (Homo sapiens) (UniProt O15197); details: Compound concentration 1000.0 nM
# [10] = target: Phosphatidylinositol 4,5-bisphosphate 3-kinase catalytic subunit gamma isoform (Homo sapiens) (UniProt P48736); details: Compound concentration 1000.0 nM
# [11] = target: Epidermal growth factor receptor (Homo sapiens) (UniProt P00533); details: Compound concentration 1000.0 nM
# [12] = target: Phosphatidylinositol 3-kinase C2 domain-containing subunit gamma (Homo sapiens) (UniProt O75747); details: Compound concentration 1000.0 nM
# [13] = tested on: Tyrosine-protein kinase ABL1 (Homo sapiens), P00519 [E255K]; details: Compound concentration 1000.0 nM
# [14] = target: Cyclin-dependent kinase 19 (Homo sapiens) (UniProt Q9BWU1); details: Compound concentration 1000.0 nM
# [15] = target: Tyrosine-protein kinase Fer (Homo sapiens) (UniProt P16591); details: Compound concentration 1000.0 nM
# [16] = target: Proto-oncogene tyrosine-protein kinase receptor Ret (Homo sapiens) (UniProt P07949); details: Compound concentration 1000.0 nM
# [17] = target: T1, Muscarinic acetylcholine receptor M5 (Homo sapiens) (UniProt P08912); details: Compound concentration 10.0 uM
# T1 sequence (whole entry): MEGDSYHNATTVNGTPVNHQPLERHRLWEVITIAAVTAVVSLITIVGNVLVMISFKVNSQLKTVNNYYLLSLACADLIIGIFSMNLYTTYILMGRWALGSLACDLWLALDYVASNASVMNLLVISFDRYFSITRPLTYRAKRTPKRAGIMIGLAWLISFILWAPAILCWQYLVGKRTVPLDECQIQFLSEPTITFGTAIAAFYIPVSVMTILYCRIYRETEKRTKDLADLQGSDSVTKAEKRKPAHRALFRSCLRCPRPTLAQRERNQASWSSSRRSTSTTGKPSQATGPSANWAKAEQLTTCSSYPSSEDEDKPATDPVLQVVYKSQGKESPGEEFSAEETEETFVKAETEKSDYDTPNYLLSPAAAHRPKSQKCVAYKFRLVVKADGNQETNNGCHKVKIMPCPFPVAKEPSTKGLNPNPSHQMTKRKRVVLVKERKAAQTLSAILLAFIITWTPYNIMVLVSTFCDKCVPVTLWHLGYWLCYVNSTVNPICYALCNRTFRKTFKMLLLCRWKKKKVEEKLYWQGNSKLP
# [18] = target: Vascular endothelial growth factor receptor 1 (Homo sapiens) (UniProt P17948); details: Compound concentration 1000.0 nM
# [19] = target: 5-hydroxytryptamine receptor 1B (Homo sapiens) (UniProt P28222); details: Compound concentration 10.0 uM
# [20] = target: Serine/threonine-protein kinase Sgk2 (Homo sapiens) (UniProt Q9HBY8); details: Compound concentration 1000.0 nM
# [21] = target: Sulfonylurea receptors; K-ATP channels (Rattus norvegicus) (UniProt Q63563+P70673+Q63664+Q09429); test: KATP channel Eurofins-Cerep binding assay; type: protein-complex assay; parameters: ligand concentration 0.1 nM; details: filed as antagonist, Compound concentration 10.0 uM
# [22] = tested on: Tyrosine-protein kinase ABL1 (Homo sapiens), P00519 [H396P]; details: Compound concentration 1000.0 nM
# [23] = target: Calcium/calmodulin-dependent protein kinase type II subunit delta (Homo sapiens) (UniProt Q13557); details: Compound concentration 1000.0 nM
# [24] = target: Aurora kinase B (Homo sapiens) (UniProt Q96GD4); details: Compound concentration 1000.0 nM
# [25] = target: Interleukin-1 receptor-associated kinase 4 (Homo sapiens) (UniProt Q9NWZ3); details: Compound concentration 1000.0 nM
# [26] = target: Serine/threonine-protein kinase RIO3 (Homo sapiens) (UniProt O14730); details: Compound concentration 1000.0 nM
# [27] = target: Mast/stem cell growth factor receptor Kit (Homo sapiens) (UniProt P10721); details: Compound concentration 1000.0 nM
# [28] = target: Substance-K receptor (Homo sapiens) (UniProt P21452); test: NK2 (h) Eurofins-Cerep binding assay; parameters: ligand concentration 0.1 nM; details: filed as agonist, Compound concentration 10.0 uM
# [29] = target: Substance-P receptor (Homo sapiens) (UniProt P25103); test: NK1 (h) Eurofins-Cerep binding assay; parameters: ligand concentration 0.05 nM; details: filed as agonist, Compound concentration 10.0 uM
# [30] = target: Mitogen-activated protein kinase kinase kinase kinase 1 (Homo sapiens) (UniProt Q92918); details: Compound concentration 1000.0 nM
# [31] = target: STE20/SPS1-related proline-alanine-rich protein kinase (Homo sapiens) (UniProt Q9UEW8); details: Compound concentration 1000.0 nM
# [32] = target: Tyrosine-protein kinase Mer (Homo sapiens) (UniProt Q12866); details: Compound concentration 1000.0 nM
# [33] = target: Mitogen-activated protein kinase kinase kinase 11 (Homo sapiens) (UniProt Q16584); details: Compound concentration 1000.0 nM
# [34] = target: Serine/threonine-protein kinase ULK3 (Homo sapiens) (UniProt Q6PHR2); details: Compound concentration 1000.0 nM
# [35] = target: Inhibitor of nuclear factor kappa-B kinase subunit alpha (Homo sapiens) (UniProt O15111); details: Compound concentration 1000.0 nM
# [36] = target: Casein kinase I isoform gamma-1 (Homo sapiens) (UniProt Q9HCP0); details: Compound concentration 1000.0 nM
# [37] = target: Microtubule-associated serine/threonine-protein kinase 1 (Homo sapiens) (UniProt Q9Y2H9); details: Compound concentration 1000.0 nM
# Sequence of Peripheral plasma membrane protein CASK (Homo sapiens) (O14936 whole entry): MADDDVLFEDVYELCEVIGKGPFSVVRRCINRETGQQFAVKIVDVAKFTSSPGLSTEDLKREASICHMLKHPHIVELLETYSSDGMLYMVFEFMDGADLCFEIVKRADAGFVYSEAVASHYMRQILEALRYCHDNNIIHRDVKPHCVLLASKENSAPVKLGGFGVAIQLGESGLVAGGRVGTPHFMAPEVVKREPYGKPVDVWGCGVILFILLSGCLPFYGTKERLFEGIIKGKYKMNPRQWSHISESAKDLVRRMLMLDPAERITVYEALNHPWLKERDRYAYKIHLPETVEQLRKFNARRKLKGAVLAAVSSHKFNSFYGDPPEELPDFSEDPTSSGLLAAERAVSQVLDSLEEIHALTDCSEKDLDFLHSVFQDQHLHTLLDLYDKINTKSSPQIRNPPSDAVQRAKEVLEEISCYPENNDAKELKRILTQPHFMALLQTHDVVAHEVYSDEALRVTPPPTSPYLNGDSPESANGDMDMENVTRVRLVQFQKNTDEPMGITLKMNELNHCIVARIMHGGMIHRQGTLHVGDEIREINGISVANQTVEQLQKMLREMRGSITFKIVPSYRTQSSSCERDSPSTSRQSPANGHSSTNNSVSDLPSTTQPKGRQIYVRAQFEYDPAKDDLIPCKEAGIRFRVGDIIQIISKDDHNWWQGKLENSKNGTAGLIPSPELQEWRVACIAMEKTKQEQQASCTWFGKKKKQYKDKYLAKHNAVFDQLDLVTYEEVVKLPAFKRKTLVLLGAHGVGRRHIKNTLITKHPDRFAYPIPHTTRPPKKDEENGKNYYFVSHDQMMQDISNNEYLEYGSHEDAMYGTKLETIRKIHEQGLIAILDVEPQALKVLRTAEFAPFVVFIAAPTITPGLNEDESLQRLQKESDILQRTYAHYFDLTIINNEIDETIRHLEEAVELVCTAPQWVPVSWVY
# Sequence of Serine/threonine-protein kinase ULK3 (Homo sapiens) (Q6PHR2 whole entry): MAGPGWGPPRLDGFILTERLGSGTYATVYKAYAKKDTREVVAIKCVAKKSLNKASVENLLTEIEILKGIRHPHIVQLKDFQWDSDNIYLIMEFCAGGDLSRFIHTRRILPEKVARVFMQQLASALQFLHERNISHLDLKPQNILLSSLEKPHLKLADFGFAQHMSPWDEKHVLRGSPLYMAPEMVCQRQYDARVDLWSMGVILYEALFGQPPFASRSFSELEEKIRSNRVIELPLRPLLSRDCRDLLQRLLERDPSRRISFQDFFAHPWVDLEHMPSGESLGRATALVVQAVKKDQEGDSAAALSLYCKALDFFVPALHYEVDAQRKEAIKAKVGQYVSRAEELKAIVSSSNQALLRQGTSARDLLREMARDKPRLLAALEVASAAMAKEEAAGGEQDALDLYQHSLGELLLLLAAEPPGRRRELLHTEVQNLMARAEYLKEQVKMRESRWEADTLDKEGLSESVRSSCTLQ
# Sequence of Phosphatidylinositol 4,5-bisphosphate 3-kinase catalytic subunit gamma isoform (Homo sapiens) (P48736 whole entry, looked up, canonical isoform): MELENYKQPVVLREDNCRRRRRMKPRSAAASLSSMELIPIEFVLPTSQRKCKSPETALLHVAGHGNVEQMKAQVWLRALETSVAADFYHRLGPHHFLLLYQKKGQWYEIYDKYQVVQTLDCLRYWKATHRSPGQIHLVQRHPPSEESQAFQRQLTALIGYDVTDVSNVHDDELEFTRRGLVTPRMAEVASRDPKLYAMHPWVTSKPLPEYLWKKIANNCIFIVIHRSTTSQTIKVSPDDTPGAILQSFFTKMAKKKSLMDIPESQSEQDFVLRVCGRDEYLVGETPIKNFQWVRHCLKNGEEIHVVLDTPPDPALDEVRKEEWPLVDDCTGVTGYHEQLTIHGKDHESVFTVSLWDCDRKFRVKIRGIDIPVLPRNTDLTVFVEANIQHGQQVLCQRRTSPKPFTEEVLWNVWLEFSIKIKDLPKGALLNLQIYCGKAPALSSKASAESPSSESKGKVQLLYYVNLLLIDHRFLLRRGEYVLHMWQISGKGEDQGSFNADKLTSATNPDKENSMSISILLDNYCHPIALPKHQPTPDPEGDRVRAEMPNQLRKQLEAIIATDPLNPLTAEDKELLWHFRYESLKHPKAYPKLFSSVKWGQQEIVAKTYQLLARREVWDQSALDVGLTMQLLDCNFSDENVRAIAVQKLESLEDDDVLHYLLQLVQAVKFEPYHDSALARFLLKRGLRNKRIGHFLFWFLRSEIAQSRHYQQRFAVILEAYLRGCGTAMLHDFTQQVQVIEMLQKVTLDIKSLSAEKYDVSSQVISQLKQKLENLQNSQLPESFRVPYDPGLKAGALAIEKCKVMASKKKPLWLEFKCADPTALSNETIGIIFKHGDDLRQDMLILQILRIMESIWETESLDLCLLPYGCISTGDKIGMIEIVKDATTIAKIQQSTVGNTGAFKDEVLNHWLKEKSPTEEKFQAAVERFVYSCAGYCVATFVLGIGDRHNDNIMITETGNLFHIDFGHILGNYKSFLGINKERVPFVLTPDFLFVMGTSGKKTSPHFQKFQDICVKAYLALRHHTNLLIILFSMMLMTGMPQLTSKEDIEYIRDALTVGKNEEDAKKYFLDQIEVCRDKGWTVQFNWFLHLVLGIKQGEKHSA
# Sequence of Phosphatidylinositol 3-kinase C2 domain-containing subunit gamma (Homo sapiens) (O75747 whole entry, the tested form may be a part): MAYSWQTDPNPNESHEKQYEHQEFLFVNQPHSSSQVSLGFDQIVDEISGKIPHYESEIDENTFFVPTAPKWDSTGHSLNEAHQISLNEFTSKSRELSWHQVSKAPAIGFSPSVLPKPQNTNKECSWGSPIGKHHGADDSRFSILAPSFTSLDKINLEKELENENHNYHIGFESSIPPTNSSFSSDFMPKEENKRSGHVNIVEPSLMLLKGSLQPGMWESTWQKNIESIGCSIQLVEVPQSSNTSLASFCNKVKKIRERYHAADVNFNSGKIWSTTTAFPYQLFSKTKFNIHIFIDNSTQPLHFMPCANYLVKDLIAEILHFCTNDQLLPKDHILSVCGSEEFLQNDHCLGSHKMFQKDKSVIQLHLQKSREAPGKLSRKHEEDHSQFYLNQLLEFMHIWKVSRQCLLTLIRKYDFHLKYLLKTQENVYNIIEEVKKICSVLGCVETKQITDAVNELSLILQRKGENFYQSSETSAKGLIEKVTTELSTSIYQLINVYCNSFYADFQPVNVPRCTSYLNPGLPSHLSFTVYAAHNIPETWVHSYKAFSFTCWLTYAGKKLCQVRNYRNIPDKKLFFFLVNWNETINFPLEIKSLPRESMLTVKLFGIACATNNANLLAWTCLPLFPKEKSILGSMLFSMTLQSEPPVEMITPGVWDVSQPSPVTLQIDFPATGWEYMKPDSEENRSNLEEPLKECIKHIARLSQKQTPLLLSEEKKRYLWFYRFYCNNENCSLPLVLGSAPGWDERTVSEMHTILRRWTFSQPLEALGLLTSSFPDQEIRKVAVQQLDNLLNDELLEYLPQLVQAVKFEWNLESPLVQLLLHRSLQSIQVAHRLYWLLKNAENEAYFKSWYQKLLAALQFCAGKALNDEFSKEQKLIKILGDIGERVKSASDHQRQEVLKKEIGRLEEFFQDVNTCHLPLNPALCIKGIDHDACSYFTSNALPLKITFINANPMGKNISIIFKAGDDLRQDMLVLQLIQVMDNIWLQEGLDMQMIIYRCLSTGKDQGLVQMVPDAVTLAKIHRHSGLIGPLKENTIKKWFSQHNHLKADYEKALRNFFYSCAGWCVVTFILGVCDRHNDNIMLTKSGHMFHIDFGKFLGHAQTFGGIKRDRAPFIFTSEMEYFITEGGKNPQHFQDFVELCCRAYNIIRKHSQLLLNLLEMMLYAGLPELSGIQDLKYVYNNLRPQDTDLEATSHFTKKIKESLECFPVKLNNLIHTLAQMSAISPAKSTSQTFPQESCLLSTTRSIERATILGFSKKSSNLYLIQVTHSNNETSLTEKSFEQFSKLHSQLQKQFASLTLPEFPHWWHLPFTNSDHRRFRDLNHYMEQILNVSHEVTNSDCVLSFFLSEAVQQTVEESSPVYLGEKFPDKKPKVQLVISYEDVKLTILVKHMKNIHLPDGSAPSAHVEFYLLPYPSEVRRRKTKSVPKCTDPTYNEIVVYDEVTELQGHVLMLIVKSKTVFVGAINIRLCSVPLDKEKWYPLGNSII
# Sequence of Ribosomal protein S6 kinase alpha-5 (Homo sapiens) (O75582 whole entry, looked up): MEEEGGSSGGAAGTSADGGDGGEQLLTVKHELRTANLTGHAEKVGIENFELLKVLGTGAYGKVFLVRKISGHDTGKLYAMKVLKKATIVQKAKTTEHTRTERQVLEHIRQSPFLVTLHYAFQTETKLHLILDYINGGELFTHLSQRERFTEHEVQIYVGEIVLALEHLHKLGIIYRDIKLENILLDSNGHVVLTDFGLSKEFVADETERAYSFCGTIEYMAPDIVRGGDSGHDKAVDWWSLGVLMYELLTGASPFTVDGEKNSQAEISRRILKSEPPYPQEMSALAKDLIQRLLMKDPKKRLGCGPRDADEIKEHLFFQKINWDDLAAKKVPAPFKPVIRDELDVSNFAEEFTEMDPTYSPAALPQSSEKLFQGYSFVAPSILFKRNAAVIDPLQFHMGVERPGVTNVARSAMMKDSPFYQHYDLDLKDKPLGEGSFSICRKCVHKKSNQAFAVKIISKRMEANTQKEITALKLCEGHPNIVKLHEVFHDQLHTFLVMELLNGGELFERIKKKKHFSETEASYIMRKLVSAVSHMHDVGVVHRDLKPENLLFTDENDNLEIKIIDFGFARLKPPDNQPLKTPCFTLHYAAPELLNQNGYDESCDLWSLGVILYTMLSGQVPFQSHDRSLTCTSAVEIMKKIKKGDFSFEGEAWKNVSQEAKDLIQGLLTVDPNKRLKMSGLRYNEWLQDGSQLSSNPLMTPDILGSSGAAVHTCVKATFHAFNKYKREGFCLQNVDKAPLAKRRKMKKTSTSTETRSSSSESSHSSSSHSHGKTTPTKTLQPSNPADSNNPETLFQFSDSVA
Structure (SMILES),residual activity [1],residual activity [2],residual activity [3],residual activity [4],residual activity [5],residual activity [6],residual activity [7],residual activity [8],residual activity [9],residual activity [10],residual activity [11],residual activity [12],residual activity [13],residual activity [14],residual activity [15],residual activity [16],inhibition [17],residual activity [18],inhibition [19],residual activity [20],also measured
CO[C@H]1CC[C@H](CNc2ccc(S(=O)(=O)NC(=O)c3ccc(N4CCN(CC5=C(c6ccc(Cl)cc6)CC(C)(C)CC5)CC4)cc3Oc3cnc4[nH]ccc4c3)cc2[N+](=O)[O-])CC1 [A-1211212],100%,92%,97%,100%,73%,68%,65%,88%,87%,86%,62%,72%,74%,73%,67%,100%,12.5%,85%,6.23%,91%,% Inhibition of Control Specific Binding (Mean n=2) [21]: 9.7%; residual activity [22]: 94%; residual activity [23]: 96%; residual activity [24]: 100%; residual activity [25]: 83%; residual activity [26]: 100%; residual activity [27]: 100%; % Inhibition of Control Specific Binding (Mean n=2) [28]: -6.1%; % Inhibition of Control Specific Binding (Mean n=2) [29]: -60.6%; residual activity [30]: 69%; residual activity [31]: 100%; residual activity [32]: 85%; residual activity [33]: 74%; residual activity [34]: 80%; residual activity [35]: 100%; residual activity [36]: 100%; residual activity [37]: 96%
O=C(NS(=O)(=O)c1ccc(NCC2CCOCC2)c([N+](=O)[O-])c1)c1ccc(N2CCN(Cc3ccc(C(F)(F)F)cc3-c3ccc(Cl)cc3)CC2)cc1Oc1cnc2[nH]ccc2c1 [A-1210227],80%,83%,100%,80%,83%,84%,97%,87%,82%,86%,84%,80%,91%,90%,94%,96%,10%,100%,-6.15%,100%,% Inhibition of Control Specific Binding (Mean n=2) [21]: 9.9%; residual activity [22]: 92%; residual activity [23]: 100%; residual activity [24]: 100%; residual activity [25]: 85%; residual activity [26]: 98%; residual activity [27]: 100%; % Inhibition of Control Specific Binding (Mean n=2) [28]: -2.4%; % Inhibition of Control Specific Binding (Mean n=2) [29]: -284%; residual activity [30]: 98%; residual activity [31]: 89%; residual activity [32]: 100%; residual activity [33]: 91%; residual activity [34]: 85%; residual activity [35]: 81%; residual activity [36]: 95%; residual activity [37]: 100%

# Source: ChEMBL document CHEMBL4507310, “Data for DCP probe A-1211212” (2021)
